pIC50: −log10 of the molar value.
molecular target: Diacylglycerol kinase alpha (Homo sapiens, UniProt P23743); experiment: Inhibitory Effect Against DGKalpha Enzyme
Experimental: First, 3×OAG (3 mM)/ATP (0.45 mM) substrate solution was prepared from 1× substrate assay buffer (40 mM MOPS (pH 7.2), 20 mM MgCl2, 1 mM DTT, 0.4 mM CaCl2), 3 mM sodium deoxycholate, 100 mM NaCl, 0.1 mg/mL BSA, 0.12% NP-40), and vortexed thoroughly for 3 minutes to induce detergent-lipid micelle formation. Then, 3×DGKα (7.5 nM) enzyme solution was prepared from 2× enzyme assay buffer (80 mM MOPS (pH 7.2), 2 mM DTT, 200 mM NaCl, 0.2 mg/mL BSA) and vortexed for a short time. After preparing the above two solutions, a half-area opaque 96-well assay plate was prepared, and 10 μL of 3× diluted compound solution (30 μM to 0 μM) was transferred to each well. Next, 10 μL of 3×DGK enzyme solution was transferred to the same plate, mixed by pipetting, and then 10 μL of 3×OAG/ATP substrate solution was added to the assay plate and mixed well. The plate was incubated at room temperature for 20 minutes for the enzyme reaction. Next, 15 μL of ADP-Glo reagent was added to each well and mixed by pipetting, followed by incubating the plate at room temperature for 40 minutes to deplete the remaining ATPs. After this step, 30 μL of kinase detection reagent was added and mixed, and the plate was incubated at room temperature for an additional 20 minutes and luminescence was measured by Envision to calculate the IC50 value of each compound.

Diacylglycerol kinase alpha, sequence (P23743 whole entry): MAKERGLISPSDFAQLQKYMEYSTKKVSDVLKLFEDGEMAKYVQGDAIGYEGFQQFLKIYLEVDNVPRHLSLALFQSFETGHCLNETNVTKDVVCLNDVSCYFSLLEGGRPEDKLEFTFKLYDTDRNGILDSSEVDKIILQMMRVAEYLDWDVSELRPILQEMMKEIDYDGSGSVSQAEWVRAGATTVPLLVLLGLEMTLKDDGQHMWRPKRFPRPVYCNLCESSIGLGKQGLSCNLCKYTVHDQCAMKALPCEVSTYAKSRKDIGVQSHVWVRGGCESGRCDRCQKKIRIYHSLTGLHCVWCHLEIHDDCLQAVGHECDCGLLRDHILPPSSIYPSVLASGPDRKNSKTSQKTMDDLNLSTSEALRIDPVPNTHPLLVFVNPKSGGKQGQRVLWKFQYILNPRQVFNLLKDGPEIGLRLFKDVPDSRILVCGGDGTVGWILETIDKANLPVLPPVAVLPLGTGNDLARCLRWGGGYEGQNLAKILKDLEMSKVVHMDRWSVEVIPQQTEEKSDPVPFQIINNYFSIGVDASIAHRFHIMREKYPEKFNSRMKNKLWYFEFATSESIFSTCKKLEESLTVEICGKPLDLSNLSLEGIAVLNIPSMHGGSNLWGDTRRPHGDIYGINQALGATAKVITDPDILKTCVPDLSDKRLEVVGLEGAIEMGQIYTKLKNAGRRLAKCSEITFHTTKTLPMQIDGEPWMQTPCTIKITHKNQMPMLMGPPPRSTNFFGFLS

pIC50, > 6.52:
Cn1c(=O)c(=O)n(C2CCN(Cc3cccc(Cl)c3)CC2)c2ncc(Cl)cc21 [US20240067645, Example 27]
Cn1c(=O)c(=O)n(C2CCN(Cc3ccc(OC(F)(F)F)cc3)CC2)c2ncc(Br)cc21 [US20240067645, Example 34]
Cn1c(=O)c(=O)n(C2CCN(Cc3cccc4c(Cl)cccc34)CC2)c2ncc(Cl)cc21 [US20240067645, Example 35]
Cn1c(=O)c(=O)n(C2CCN(Cc3ccc(F)c(Cl)c3)CC2)c2ncc(Cl)cc21 [US20240067645, Example 42]
Cn1c(=O)c(=O)n(C2CCN(Cc3ccc(OC(F)(F)F)c(Cl)c3)CC2)c2ncc(Cl)cc21 [US20240067645, Example 43]

— BindingDB's records for patent US20240067645 (Lg Chem, 2024)
